Results as given in patent publication US20250110116A1, “COMPOSITIONS AND METHODS FOR PRODUCING HAIR FOLLICLE STEM CELLS” (The Rockefeller University, priority 2023, published 2025).
Entries after “also recorded” stand apart in the source; their conditions may differ. Where two headings read alike, the source gives them in different places.

Legend:
CD34^+ HFSCs = assay: Topical treatment of mouse back skin during resting phase of the hair cycle; format: in vivo, mice; conditions: telogen
human keratinocytes = assay: Human keratinocyte culture under the described conditions, 7 days; format: cell-based; conditions: atRA plus PKCi added to B-27 media
Source text: This example relates to FIG. 21. With respect to FIG. 21, to assess the translatability of the described methodology enabling the faithful recapitulation of hair follicle stem cell (HFSC) identity in culture to humans, we introduced the described conditions developed in the mouse to human keratinocytes.

cultured HFSCs [1] = assay: HFSC quiescence / bulge identity in culture (Nfatc1, Cxcl14 reporter); format: cell-based, mouse
Source text: In vivo, HFSCs can be divided into two populations: those in a more quiescent state found in the bulge and ones primed for activation, located in the ‘hair germ’ (HG) just below the bulge. As BMP6 is produced by the inner bulge and responsible for maintaining HFSCs in their quiescent state (FIG. 2 Panel A), we continued to utilize a described culture system by assessing how these factors impact HFSC activation and fate commitment.
BMPs triggered cell cycle exit (FIG. 9 Panel A).
(§1) ERKi was also excluded because of its known ability to regulate the initiation of hair growth. Both atRA (10 nM-1 μM) and PKCi (0.1-10 μM) were titrated to determine the optimal concentration to reduce lineage plasticity and promote physiological HFSC behavior. […] In contrast, BMP6-mediated Nfatc1 mRNA upregulation (quiescence marker) was maximal at 10 nM. Therefore, the amount of atRA should be modified in HFSC cultures to support the desired cell fate in combination with these and possibly other growth factors.

cultured HFSCs [2] = assay: Marker expression in cultured HFSCs (immunofluorescence, immunoblot, qPCR); format: cell-based, mouse
Source text: We first explored these two hits against the backdrop of our more physiological (serum-free) conditions, where SOX9 and KLF5 had already partitioned their expression peripherally and internally within colonies, respectively (FIG. 1 Panel C).
Immunoblot, qPCR and additional immunofluorescence analyses strengthened the evidence that PKCi and atRA resolve lineage plasticity (FIG. 1 Panel D, FIG. S2, Panels C to E).

HFSCs [3] = assay: Transplantation of precultured HFSCs with dermal fibroblasts onto mouse back skins; format: in vivo; conditions: HFSCs precultured in serum-free media primed with either atRA, BMP6 or Rspo
Source text: By overcoming the hurdles to lineage progression in vitro, we challenged the in vivo regenerative potential of the described lineage-specified cell populations. YFP-labeled progenitors from each group were combined with allogenic dermal fibroblasts and transplanted onto mouse back skins.

hair follicle = assay: Topical treatment of mouse back skin at mid-anagen (HF downgrowth)
Klf5-EGFP = Klf5-EGFP lineage plasticity reporter in 3D cultured HFSCs (flow cytometry); format: cell-based, mouse
cultured HFSCs [4] = assay: Rspo/WNT-mediated HFSC activation in culture (TCF/LEF, Lgr5, EdU); format: cell-based, mouse
Source text: In vitro, none of the four WNT-regulating TCF/LEF transcription factors were expressed under standard serum conditions or in serum-free conditions, even with PKCi. […] These HFSC-associated TFs were also stimulated by BMP6, consistent with a raised threshold for activating WNT during quiescence (FIG. 10, Panels A and B). […] Rspo-mediated HFSC proliferation was sensitive to atRA with the greatest cooperative effect seen at 10-fold higher the atRA concentration that had been optimal for quiescence-related features of stemness (FIG. 2 Panel E, FIG. 10 Panel D).
as §1

HFSCs [5] = assay: Wound repair with lineage-traced HFSCs, topical treatment; format: in vivo, mice
Source text: The recruitment of HFSCs to epidermal repair is a multistep process, involving first the entry of HFSCs into a lineage plasticity state, second the fate switch to an epidermal fate and then later, the rebalancing of stem cell numbers across tissue compartments. Given the need for atRA to drive hair lineage determination, we analyzed whether elevating atRA after injury might diminish the ability of HFSCs to enter a state of lineage plasticity after wounding. To test this, we administered topical atRA immediately after wounding to telogen-phase, lineage marked HFSCs. While entry into the hair cycle proceeded normally after injury, topical atRA led to a stem cell imbalance (FIG. 5 Panel D).
To assess the consequences of promoting lineage plasticity following injury, we placed mice on a vitamin A-deficient diet that depleted the skin of retinol without affecting body mass (FIG. 15 Panel E). In this case, following tissue injury, mobilized HFSCs entered a prolonged stated of dual lineage potential well into the later stages of repair (FIG. 5 Panel D). […] By day 30, vitamin A deficiency also elevated the fraction of stem cells that contributed to the repaired epidermis and diminished the number remaining in the bulge.

[6] = daily topical during HF downgrowth

Structure (SMILES): CC1=C(/C=C/C(C)=C/C=C/C(C)=C/C(=O)O)C(C)(C)CCC1 [atRA, all-trans-retinoic acid]
- hair cycle (anagen) entry (CD34^+ HFSCs): facilitated hair cycle entry
- hair cycle (anagen) entry (CD34^+ HFSCs; listed as RA): accelerated the onset of anagen entry
- KLF5 expression (human keratinocytes): further suppressed KLF5 expression in both basal and suprabasal layers
- SOX9 levels (human keratinocytes): upregulated SOX9 levels
- keratin profile (KRT10, KRT6, KRT15) (human keratinocytes): reductions in KRT10 and KRT6; also recorded: upregulation of KRT15
- bulge HFSC identity (Nfatc1, Cxcl14-EGFP reporter) (cultured HFSCs [1]): dose-dependent boost in bulge HFSC identity, optimal at low concentration
- bulge HFSC identity (Nfatc1, Cxcl14-EGFP reporter) (cultured HFSCs [1]; listed as RA): increased
- atRA concentration at which BMP6-mediated Nfatc1 mRNA upregulation was maximal (cultured HFSCs [1]; with BMP6): 10 nM
- Nfib and Tbx1 expression (cultured HFSCs [2]): restored Nfib and Tbx1 expression
- epidermal markers Sca1 and KRT10 (cultured HFSCs [2]): suppressed epidermal markers
- Sox9 mRNA levels (cultured HFSCs [2]; atRA titrated 10 nM-1 μM): increased Sox9 mRNA levels in a dose-dependent manner
- resolution of lineage plasticity and HFSC behavior (cultured HFSCs [2]; combination of atRA and PKCi, 3D culture): optimally resolved lineage plasticity and favored HFSC behavior
- KLF5 expression (cultured HFSCs [2]; serum-free conditions): not as effective in reducing KLF5
- SOX9 population (cultured HFSCs [2]; serum-free conditions): markedly expanded the SOX9 population
- hair production upon engraftment (HFSCs [3]): efficiently produced hair
- TAC differentiation (hair follicle; [6]): prevented TAC differentiation
- hair regrowth (hair follicle; [6]): prevented hair regrowth
- proportion of HOXC13^+ to GATA3^+ cells (hair follicle; topical, mid-anagen): reduced the relative proportion of HOXC13^+ to GATA3^+ cells
- size of the hair bulb (hair follicle; topical, mid-anagen): substantially reduced the size of the hair bulb overall
- reduction of Klf5-EGFP levels (Klf5-EGFP; atRA and PKCi tested in combination): most effective at reducing Klf5-EGFP levels
- effect on lineage plasticity (Klf5-EGFP levels) (Klf5-EGFP; screen of small molecule library, serum-free 3D culture): effective at reducing lineage plasticity without affecting proliferation; also recorded: particularly effective agents impacting lineage plasticity
- Tcf7l1 (TCF3) and Tcf7l2 (TCF4) expression (cultured HFSCs [4]): promoted expression
- Sox9 and Rspo-mediated Lgr5 upregulation (cultured HFSCs [4]; compared among physiological vitamin A derivatives): greatest effect on Sox9 and Rspo-mediated Lgr5 upregulation
- atRA concentration at which Lgr5 mRNA upregulation and EdU incorporation were optimized (cultured HFSCs [4]; with Rspo): 100 nM
- atRA concentration for greatest cooperative effect on Rspo-mediated HFSC proliferation relative to concentration optimal for quiescence (cultured HFSCs [4]; with Rspo): 10 fold
- HFSC lineage plasticity state during wound repair (HFSCs [5]; topical after wounding): Fewer HFSCs entered the lineage plasticity state
- restoration of skin barrier (transepidermal water loss, TEWL) (HFSCs [5]; topical after wounding): clear delay in restoring the skin's barrier
- HFSC lineage plasticity state during wound repair (HFSCs [5]; topical after wounding, listed as RA): accelerated lineage plasticity resolution
- hair regeneration and HFSC fate in vitamin A-deficient mice (HFSCs [5]; topical to wound bed, vitamin A-deficient diet): all of these features were rescued
